One block for each compound: values may come before it.
Experiments:
angiotensin II receptor = experiment: Angiotensin II Receptor Binding Assay ([3H] angiotensin II binding inhibition); details: [3H] angiotensin II ligand; 60 minutes, 25° C.; test concentration not given
Experimental: In accordance with the procedure disclosed in Chiu, A. T. et al., Eur. J. Pharm., 157, 13(1981), a ligand marked with a radioisotope was reacted with an angiotensin II receptor and the reactant was filtered with a glass fiber to remove unreacted ligand. After washing the filter, the amount of the remaining isotope was measured to determine the binding activity of the ligand, as described below in detail.
Sprague-Dawley rats and Wistar rats of 250 to 350 g(from The Korea Research Institute of Chemical Technology) were tested and the test procedures were carried out at 4° C., unless otherwise specified. Adrenal gland was separated from the Sprague-Dawley rats(liver, in the case of Wistar rats) into cortex and medulla. The separated adrenal cortex and medulla were washed with a sucrose buffer solution (0.2M sucrose, 1 mM EDTA, 10 mM Tris, pH 7.2) and homogenized in the same buffer solution by using a Teflon pestle and a Brinkmann homogenizer. The homogenates were centrifuged at 3,000 Xg for 10 minutes to remove precipitates and further centrifuged at 12,000 Xg for 13 minutes. The final supernatants were centrifuged at 102,000 Xg for 1 hour to obtain precipitates, which were washed with a Tris buffer solution(50 mM Tris, 5 mM MgCl2, pH 7.2) and re-centrifuged at 102,000 Xg for 1 hour. The resulting precipitates were immediately processed at the following step or stored at -70° C.
The precipitates were suspended in a Tris buffer solution. The amount of protein was determined by using a Bio-Rad DC protein analyzing kit and the protein concentration was adjusted to the amounts of: 0.2 to 0.3 mg/ml(Sprague-Dawley rat: adrenal cortex), 1.5 to 2.0 mg/ml(Sprague-Dawleyrat: adrenal medulla), and 1.5 to 2.0 mg/ml(Wistar rat: liver). To the suspension, bovine serum albumin(BSA) was added to a concentration of 0.25 wt % and the resultant was immediately processed at the following step or stored at -70° C.
(ii) Measurement of angiotensin II receptor binding capacity 50 μl(based on ligand) of [^3 H] angiotensin II(NEN, NET-446) and 10 μl of each of the test compounds with various concentrations were added to the buffer solution(50 mM Irris(pH 7.2), 5 mM MgCl2, 0.25% BSA) to adjust the final volume to be 0.5 ml. 100 μl of the receptor suspension was added thereto and the resulting solution was reacted for 60 minutes while stirring in a water bath at 25° C. 3 ml of cold buffer solution for analysis was added to cease the reaction. The isotope which was bound to the receptor was isolated from the resultant by using Brandel Cell Harvester System with Whatman glass fiber GF/C. After washing the filter, the radioactivity of the filter was determined by using a liquid scintillation counter. Binding inhibition(%) of the test compound was calculated as follows:
Binding Inhibition(%)=[{(T--B)-(S--B)}/(T--B)]×100
wherein T is cpm of the reaction product untreated with the test compound, S is cpm of the reaction product treated with the test compound, and B is cpm of blank test.

renal hypertensive rat [1] = experiment: Blood pressure lowering effect on oral administration to rats at several doses; format: in vivo, male Sprague-Dawley rats
Text: (§1) To induce renal hypertension, left renal artery of 4 week-old male Sprague-Dawley rats(from The Korea Research Institute of Chemical Technology) was ligated. The rats were anesthetized with ether and the surgical region on the left abdomen of the rat was shaved, disinfected, and then incised about 1 cm vertically. The renal artery near abdominal aorta was isolated carefully from surrounding tissues and veins, and then ligated completely with a suture(4/0 sterile surgical silk). The muscular strata and skin of the surgical area were sutured with a suture(4/0 sterile surgical silk). The surgical region was disinfected to prevent infection and thereafter, 200 to 250 mg/Kg/day of cephazolin sodium was injected intramuscularly for 2 days. 6 to 8 days after the ligation, rats showing systolic pressure of more than 180 mmHg were selected for renal hypertension test. The blood pressure was determined by a tail-cuff method from the tail under unanesthetized condition(Gerold, M. et al., Arzneimittrel-Forsch, 18, 1285(1968)).
(§2) Each of the compounds to be tested was administered intravenously or orally into the renal hypertensive rat. The blood pressure of the rats was determined by direct method(Chiu, A. T. et al., J. Pharmacol. Exp. Ther. 250, 867(1989)) using a catheter. The rats were anesthetized with ketamine hydrochloride(125 mg/kg, i.p.) and a catheter was filled with saline and inserted into a carotid artery and carotid vein. The surgical area was sutured with a metal clip. The rats were relaxed at least 3 hours and the catheter in the carotid artery was adapted to an isotec pressure transducer to determine their blood pressure and heart rate with a physiograph(Linearcorder WR3310). After the blood pressure was stabilized, the test compound was administered intravenously or orally. For intravenous administration, the administered volume and washing volume were 1.0 ml/Kg and 0.2 ml, respectively. The blood pressure and heart rate were measured in regular intervals up to 24 hours after the administration of the test compound and compared with those measured after the administration of the control compound Losartan.
(§3) The test compound was dissolved in 0.05N KOH for intravenous administration and suspended in Tween 80 for oral administration.
(iii) Blood pressure lowering effect The present compounds, Losartan(Dup 753) and the Merck compound were administrated orally to rats in 10, 3, 1, 0.3 and 0.1 mg/kg under the same condition as in (ii) and the blood pressure lowering effect was determined.

renal hypertensive rats = experiment: Duration of action in renal hypertensive rats; format: in vivo, male Sprague-Dawley rats; details: oral
Text: as §1, §2
The present(Example 28) and control(Merck) compounds were tested using the hypertensive rats of test 2(i). 1 mg or 3 mg/kg of each compound was administered orally and blood pressure lowering effect with time was determined to measure the duration of action of the compounds.

unanesthetized dogs = experiment: Blood pressure lowering effect in unanesthetized dogs (furosemide treated); format: in vivo, dog; set-up: Maximum blood pressure lowering effect in a dog: unit not given here; details: oral; for Blood pressure variation with time: dogs, 1.0 mg
Experimental: A number of dogs were fed freely in a feeding room and those weighing 7 to 12 kg in good health were selected regardless of their gender.
(§4) The test dogs were anesthetized with 30 mg/kg of pentobarbital sodium by intravenous injection and the left femoral artery and femoral vein were separated carefully. Silicone catheter, specially prepared and filled with saline treated with heparin(1,000 IU/ml), was cannulated into the blood vessels. After the surgery, the dogs were constrained to measure their blood pressure continuously with Gould 2000 physiograph adapted to a Grass P23 XL pressure transducer; and their heart rates were monitored with ECG/Biotacho amplifier. The dogs were tested at least 2 days after the surgery.
(§5) 10 mg/kg of furosemide was injected intramuscularly 18 hours(in case of intravenous injection, 2 hours) before the beginning of the test (administration of the test compound) to improve the activity of renin in blood plasma. After the injection of furosemide, neither food nor water was provided. The test compound was suspended in Tween 80 and administered in an amount of 20 mg/kg orally. The blood pressure and heart rate were measured up to 8 hours after the administration of each test compound.
The maximum blood pressure lowering effect of the present compounds and the control compounds were determined in different amounts of administration using the same method as […]

renal hypertensive rat [2] = experiment: Blood pressure lowering effect in renal hypertension (renal hypertensive rats, intravenous or oral); format: in vivo, male Sprague-Dawley rats; details: 1 mg, read-out: Maxium Blood Pressure Lowering Effect(%)
Text: as §1, §2, §3

[3] = Metabolite analysis (enzyme digestion test); format: in vitro ADME, male rats; details: rat liver microsome and NADPH, 1 hour, 37° C., HPLC
Experimental: Enzyme digestion test was executed in order to detect the metabolite of the test compound in vivo.
A liver microsome and NADPH system of male rats were added to each of the present compound(Example 8) and the control compound(Merck), and the mixture was incubated for 1 hour at 37° C. The resultant was extracted with methanol or dichloromethane, and, thereafter, the organic layer was evaporated to obtain a residue. The residue was analyzed using high pressure liquid chromatography.

[4] = test system: furosemide-administered dogs; experiment: Duration of action in furosemide-administered dogs; format: in vivo, dog; details: 0.33 mg, per os
Experimental: as §4
as §5, with “The test compound was suspended in Tween 80 and administered in an amount of 20 mg/kg orally.” left out
The compound of Example 8 and the Merck compound were administered orally to the furosemide-administrated dogs as in test 3(i), and blood pressure lowering effect was measured with time.

- Binding Inhibition(%) (angiotensin II receptor): 50.5%
SMILES: CCCCc1nc2c(C)c(-c3ccccc3)c(C(OC)OC)nc2n1Cc1ccc(-c2ccccc2-c2nnn[nH]2)cc1 [Example 28, 2-butyl-5-dimethoxymethyl-6-phenyl-7-methyl-3-[2'-(1H-tetrazol-5-yl)-biphenyl-4-ylmethyl]-3H-imidazo[4,5-b]pyridine]
- blood pressure lowering effect (renal hypertensive rat [1]; 0.3 mg/kg): 13%
- blood pressure lowering effect (renal hypertensive rat [1]; 1 mg/kg): 47%
- blood pressure lowering effect compared with the Merck compound (renal hypertensive rat [1]; Table 2): far superior effect
- duration of action compared with the Merck compound (renal hypertensive rats; 1 mg/kg versus Merck compound 3 mg/kg): far longer duration of action
- blood pressure lowering effect with time (renal hypertensive rats; 1 mg/kg, 0 min): 0%
- blood pressure lowering effect with time (renal hypertensive rats; 1 mg/kg, 10 min): -16%
- blood pressure lowering effect with time (renal hypertensive rats; 1 mg/kg, 20 min): -17%
- blood pressure lowering effect with time (renal hypertensive rats; 1 mg/kg, 30 min): -18%
- blood pressure lowering effect with time (renal hypertensive rats; 1 mg/kg, 60 min): -21%
- blood pressure lowering effect with time (renal hypertensive rats; 1 mg/kg, 90 min): -34%
- blood pressure lowering effect with time (renal hypertensive rats; 1 mg/kg, 120 min): -33%
- blood pressure lowering effect with time (renal hypertensive rats; 1 mg/kg, 240 min): -46%
- blood pressure lowering effect with time (renal hypertensive rats; 1 mg/kg, 360 min): -47%
- blood pressure lowering effect with time (renal hypertensive rats; 1 mg/kg, 1320 min): -25%
- blood pressure lowering effect with time (renal hypertensive rats; 1 mg/kg, 1440 min): -28%
- Maximum blood pressure lowering effect in a dog (unanesthetized dogs; 0.1 mg/kg): 9
- Maximum blood pressure lowering effect in a dog (unanesthetized dogs; 0.3 mg/kg): 18
- Maximum blood pressure lowering effect in a dog (unanesthetized dogs; 1 mg/kg): 33
- Blood pressure variation with time (unanesthetized dogs; 0.5 hr): -3.3%
- Blood pressure variation with time (unanesthetized dogs; 1 hr): -18.9%
- Blood pressure variation with time (unanesthetized dogs; 2 hr): -27.7%
- Blood pressure variation with time (unanesthetized dogs; 4 hr): -33.3%
- Blood pressure variation with time (unanesthetized dogs; 6 hr): -29.5%
- Blood pressure variation with time (unanesthetized dogs; 8 hr): -27.1%
- change in vivo at 1 mg (renal hypertensive rat [2]): -47%

- metabolite from the enzymatic digestion [3]: has a metabolite
SMILES: CCc1nc2c(C)cc(C)nc2n1Cc1ccc(-c2ccccc2-c2nnn[nH]2)cc1 [Merck compound, reference compound]
- blood pressure lowering effect (renal hypertensive rat [1]; 3 mg/kg): 40%
- blood pressure lowering effect with time (renal hypertensive rats; 3 mg/kg, 0 min): 0%
- blood pressure lowering effect with time (renal hypertensive rats; 3 mg/kg, 10 min): -15%
- blood pressure lowering effect with time (renal hypertensive rats; 3 mg/kg, 20 min): -27%
- blood pressure lowering effect with time (renal hypertensive rats; 3 mg/kg, 30 min): -28%
- blood pressure lowering effect with time (renal hypertensive rats; 3 mg/kg, 60 min): -26%
- blood pressure lowering effect with time (renal hypertensive rats; 3 mg/kg, 90 min): -28%
- blood pressure lowering effect with time (renal hypertensive rats; 3 mg/kg, 120 min): -25%
- blood pressure lowering effect with time (renal hypertensive rats; 3 mg/kg, 240 min): -40%
- blood pressure lowering effect with time (renal hypertensive rats; 3 mg/kg, 360 min): -36%
- blood pressure lowering effect with time (renal hypertensive rats; 3 mg/kg, 1320 min): -35%
- blood pressure lowering effect with time (renal hypertensive rats; 3 mg/kg, 1440 min): -40%
- blood pressure lowered (renal hypertensive rats; 3 mg/kg, time in minutes not given): -40%
- Maximum blood pressure lowering effect in a dog (unanesthetized dogs; 0.1 mg/kg): 20
- Maximum blood pressure lowering effect in a dog (unanesthetized dogs; 0.3 mg/kg): 24
- blood pressure lowering effect with time ([4]; 0 min): 0.0%
- blood pressure lowering effect with time ([4]; 10 min): -5.0%
- blood pressure lowering effect with time ([4]; 20 min): -12.2%
- blood pressure lowering effect with time ([4]; 30 min): -14.4%
- blood pressure lowering effect with time ([4]; 60 min): -20.1%
- blood pressure lowering effect with time ([4]; 90 min): -24.4%
- blood pressure lowering effect with time ([4]; 120 min): -19.1%
- blood pressure lowering effect with time ([4]; 150 min): -24.2%
- blood pressure lowering effect with time ([4]; 180 min): -18.9%
- blood pressure lowering effect with time ([4]; 210 min): -17.0%
- blood pressure lowering effect with time ([4]; 240 min): -17.0%
- blood pressure lowering effect with time ([4]; 270 min): -13.4%
- blood pressure lowering effect with time ([4]; 300 min): -14.9%
- blood pressure lowering effect with time ([4]; 330 min): -15.6%
- blood pressure lowering effect with time ([4]; 360 min): -15.6%
- blood pressure lowering effect with time ([4]; 390 min): -11.4%
- blood pressure lowering effect with time ([4]; 420 min): -10.7%
- blood pressure lowering effect with time ([4]; 450 min): -11.4%
- blood pressure lowering effect with time ([4]; 480 min): -13.8%
